{"source": "patent US20230165876A1", "about": "“METHYLTHIONINIUM COMPOUNDS FOR USE IN THE TREATMENT OF COVID-19” (WisTa Laboratories Ltd., priority 2020, published 2023)", "key": {"SARS-CoV-2 [1]": {"tested_on": "SARS-CoV-2", "details": "Vero E6 cells; screen concentration 5 µM; cited from earlier work"}, "[2]": {"assay": "Oral doses with anti-viral activity and LMTM equivalent calculated from AD activity data", "set-up": "species or system human", "details": "calculated using the activity data in AD as basis for comparison"}, "[3]": {"assay": "Phase 3 double-blind controlled studies of LMTM in AD and bvFTD, safety", "format": "in vivo, human", "procedure": "Three Phase 3, double-blind, controlled studies of LMTM have been completed (one each in subjects with mild and mild to moderate AD and one in subjects with bvFTD). Results of the AD studies have been published (Gauthier et al., 2016; Wilcock et al., 2018; Shiells et al., 2020). These studies provide an overview of the more common adverse events that might be expected at a dose of LMTM 16 mg/day. In these three studies, 1897 subjects received at least one dose of LMTM. Of these, 860 subjects received LMTM 8 mg/day and 1037 subjects received at least one dose of LMTM in the higher doses of 150 to 250 mg/day. The mean ages of study participants were 71 years (ranging up to 89 years) for subjects with AD and 63 years (ranging up to 79 years) for subjects with bvFTD.\nThe overall person-years of exposure to LMTM 8 mg/day was 995.2 person-years and to the higher LMTM doses of 150 to 250 mg/day was 988.6 person-years. Six percent (6%) of the subjects discontinued LMTM 8 mg/day due to adverse events; the proportion of subjects discontinuing due to adverse events in the higher dose groups was higher (14%).\nThe most common Treatment-Emergent Adverse Events (TEAEs) considered at least possibly associated with LMTM given in a dose of 8 mg/day were gastrointestinal (mostly diarrhoea and nausea), genitourinary (mostly pollakiuria and urinary incontinence), haematologic (anaemia, decreased folate, and folate deficiency), and nervous system related (mostly fatigue, dizziness, headache, agitation, and insomnia).\nIn summary, therefore, the safety of LMTM has been studied in over 2400 patients in Phase 1 and Phase 3 trials at repeat doses up to 450 mg/day. Even at the highest doses examined, the safety profile of LMTM remains benign and consistent with further clinical development."}, "Complex IV": {"tested_on": "Complex IV", "details": "tau transgenic mouse model; cited from earlier work"}, "[4]": {"details": "LMTM relative to MTC; cited from earlier work"}, "red cells": {"tested_on": "red cells", "details": "administered intravenously; LMTM relative to MTC; cited from earlier work"}, "[5]": {"details": "LMTM in AD; cited from earlier work"}, "SARS-CoV-2 [6]": {"tested_on": "SARS-CoV-2", "details": "advanced COVID-19 cases, treated vs not treated; cited from earlier work"}, "SARS-CoV-2 [7]": {"tested_on": "SARS-CoV-2", "details": "cited from earlier work"}, "SARS-CoV": {"tested_on": "SARS-CoV", "details": "cited from earlier work"}, "SARS-CoV-2 [8]": {"tested_on": "SARS-CoV-2", "details": "20 COVID-19 patients; cited from earlier work"}}, "note": "Where a SMILES comes first, the peptide text is derived from it. The star is where a group is joined. Cbz = O=C(OCc1ccccc1)*; CHN2 = [N-]=[N+]=C*", "data": [{"smiles": "Cc1cccc(/C=N/Nc2cc(N3CCOCC3)nc(OCCc3ccccn3)n2)c1", "note": "[Apilimod]", "values": [{"measurement": "inhibition of viral replication", "setting": "SARS-CoV-2 [1]", "result": "inhibited viral replication"}]}, {"smiles": "CN(C)c1ccc2c(c1)Sc1cc(N(C)C)ccc1N2.CS(=O)(=O)O.CS(=O)(=O)O", "note": "[LMTM, N,N,N′,N′-tetramethyl-10H-phenothiazine-3,7-diaminium bis(hydromethanesulfonate)]", "values": [{"measurement": "cardiotoxicity", "setting": "Cardiotoxicity", "result": "does not have the cardiotoxicity"}, {"measurement": "equivalent doses of LMTM", "setting": "[2]", "result": "12 - 27 mg/MT per day"}, {"measurement": "change in RBC count, haemoglobin and haematocrit", "setting": "[3]; LMTM 8 mg/day", "result": "minimal change"}, {"measurement": "subjects discontinued due to adverse events", "setting": "[3]; LMTM 8 mg/day", "result": 6, "unit": "%"}, {"measurement": "vital sign measurements, ECGs, or the C-SSRS", "setting": "[3]; Phase 3 studies", "result": "No clinically meaningful trends"}, {"measurement": "RBC count, haemoglobin and haematocrit", "setting": "[3]; greater decreases in the higher dose groups (150 to 250 mg/day) compared to 8 mg/day", "result": "dose-dependent decreases"}, {"measurement": "subjects discontinuing due to adverse events", "setting": "[3]; higher LMTM doses of 150 to 250 mg/day", "result": 14, "unit": "%"}, {"measurement": "incidence of anaemia-related TEAEs, gastrointestinal events and genitourinary events", "setting": "[3]; higher LMTM doses, 150 to 250 mg/day", "result": "dose-related increase"}, {"measurement": "safety profile", "setting": "[3]; over 2400 patients in Phase 1 and Phase 3 trials, repeat doses up to 450 mg/day", "result": "benign"}, {"measurement": "brain Complex IV activity", "setting": "Complex IV", "result": "enhance brain Complex IV activity"}, {"measurement": "better brain:plasma ratio", "setting": "[4]", "result": "more than 60 fold"}, {"measurement": "better uptake into red cells", "setting": "red cells", "result": 20, "unit": "fold"}, {"measurement": "minimum effective dose required for anti-dementia effects", "setting": "[5]", "result": 8, "unit": "mg/day"}, {"measurement": "optimally effective dose", "setting": "[5]", "result": 16, "unit": "mg/day"}]}, {"smiles": "CC(C)(O)c1ccc2c(c1)/C(=C/CCN1CC[C@](O)(c3ccc(Cl)cc3)C(C)(C)C1)c1cccnc1CO2", "note": "[MLN-3897]", "values": [{"measurement": "inhibition of viral replication", "setting": "SARS-CoV-2 [1]", "result": "inhibited viral replication"}]}, {"smiles": "C[C@@H]1CS/C(=N\\NC(=O)C(=O)[C@@H](NC(=O)C2CCCCCC2)C2CCOCC2)N1C", "note": "[ONO 5334]", "values": [{"measurement": "inhibition of viral replication", "setting": "SARS-CoV-2 [1]", "result": "inhibited viral replication"}]}, {"smiles": "CC[C@H](NC(=O)[C@H](CS(=O)(=O)CC1CC1)N[C@@H](c1ccc(F)cc1)C(F)(F)F)C(=O)C(=O)NC1CC1", "note": "[VBY-825]", "values": [{"measurement": "inhibition of viral replication", "setting": "SARS-CoV-2 [1]", "result": "inhibited viral replication"}]}, {"smiles": "CC(C)CC(NC(=O)OCc1ccccc1)C(=O)NC(C(=O)NCC(=O)C=[N+]=[N-])C(C)C", "note": "(stereo not drawn) [Z LVG CHN2] (Cbz-Leu-Val-Gly-CHN2; configuration not given here)", "values": [{"measurement": "inhibition of viral replication", "setting": "SARS-CoV-2 [1]", "result": "inhibited viral replication"}]}, {"smiles": "CCN(CC)CCCC(C)Nc1ccnc2cc(Cl)ccc12", "note": "(centres unmarked) [chloroquine]", "values": [{"measurement": "benefit in advanced cases (mortality rates)", "setting": "SARS-CoV-2 [6]", "result": "no benefit"}, {"measurement": "effectiveness against SARS-CoV-2 in vitro", "setting": "SARS-CoV-2 [7]", "result": "effectiveness"}, {"measurement": "effectiveness against SARS-CoV in vitro", "setting": "SARS-CoV", "result": "effectiveness"}]}, {"smiles": "CCN(CCO)CCCC(C)Nc1ccnc2cc(Cl)ccc12", "note": "(centres unmarked) [hydroxychloroquine]", "values": [{"measurement": "viral load in nasal swabs", "setting": "SARS-CoV-2 [8]", "result": "significantly reduced viral load"}]}]}
